Measurements taken from ChEMBL document CHEMBL4651402, “Screening of ~5500 FDA-approved drugs and clinical candidates for anti-SARS-CoV-2 activity” (2021).

Tested on: SARS-CoV-2
Assay: microbe, parasite or virus in culture
Conditions: Severe acute respiratory syndrome coronavirus 2, Vero C1008, 48 h

Row | Structure (SMILES) | IC50 [µM] | IC50 (read-out: pIC50 (converted)) [µM]
1 | O=C(O)CCNC(=O)c1ccccc1 [BETAMIPRON] | > 20 | > 20
2 | Oc1ccc2ccccc2c1 [BETANAPHTHOL] | > 20 | > 20
3 | CC(C)NCC(O)COc1ccc(CCOCC2CC2)cc1 (centres undefined) [BETAXOLOL] | > 20 | > 20
4 | NCCc1cc[nH]n1 [BETAZOLE] | > 20 | > 20
5 | CC(C[N+](C)(C)C)OC(N)=O (centres undefined) [BETHANECHOL] | > 20 | > 20
6 | COc1ccc(NC(=O)c2ccc(C(=N)N(C)C)cc2)c(C(=O)Nc2ccc(Cl)cn2)c1 [BETRIXABAN] | > 20 | > 20
7 | C=C(C)[C@@H]1CC[C@]2(CO)CC[C@]3(C)[C@H](CC[C@@H]4[C@@]5(C)CC[C@H](O)C(C)(C)[C@@H]5CC[C@]43C)[C@@H]12 [BETULIN] | > 20 | > 20
8 | COc1ccc(CCNCC(O)COc2cccc(C)c2)cc1OC (centres undefined) [BEVANTOLOL] | > 20 | > 20
9 | C=C(C)[C@@H]1CC[C@]2(C(=O)O)CC[C@]3(C)[C@H](CC[C@@H]4[C@@]5(C)CC[C@H](OC(=O)CC(C)(C)C(=O)O)C(C)(C)[C@@H]5CC[C@]43C)[C@@H]12 [BEVIRIMAT] | > 20 | > 20
10 | C=C(c1ccc(C(=O)O)cc1)c1cc2c(cc1C)C(C)(C)CCC2(C)C [BEXAROTENE] | > 20 | > 20
11 | CC(C)(Oc1ccc(CCNC(=O)c2ccc(Cl)cc2)cc1)C(=O)O [BEZAFIBRATE] | > 20 | > 20
12 | COc1ccc(-c2ccc3ncc4c(c3c2)n(-c2ccc(N3CCNCC3)c(C(F)(F)F)c2)c(=O)n4C)cn1 [BGT-226 FREE BASE] | > 20 | > 20
13 | CC(O)(CS(=O)(=O)c1ccc(F)cc1)C(=O)Nc1ccc(C#N)c(C(F)(F)F)c1 (centres undefined) [BICALUTAMIDE] | > 20 | > 20
14 | Cc1ccc(C23CNCC2C3)cc1 (centres undefined) [BICIFADINE] | > 20 | > 20
15 | CN1CCc2cc3c(cc2[C@H]1[C@@H]1OC(=O)c2c1ccc1c2OCO1)OCO3 [BICUCULLINE] | > 20 | > 20
16 | CCN(CC)CCOC(=O)C(c1ccccc1)N1CCCCC1 (centres undefined) [BIETAMIVERINE] | > 20 | > 20
17 | c1ccc(-c2ccc(C(c3ccccc3)n3ccnc3)cc2)cc1 (centres undefined) [BIFONAZOLE] | > 20 | > 20
18 | COc1c(C)cnc(Cn2cnc3c(Cl)nc(N)nc32)c1C [BIIB021] | > 20 | > 20
19 | C=CC1=C(C)/C(=C/c2[nH]c(Cc3[nH]c(/C=C4\NC(=O)C(C)=C4C=C)c(C)c3CCC(=O)O)c(CCC(=O)O)c2C)NC1=O [BILIRUBIN] | > 20 | > 20

Row | Structure (SMILES) | IC50 [µM] | IC50 (read-out: pIC50 (converted)) [µM]
20 | CCN1c2ncc(CCOc3cc[n+]([O-])c4ccccc34)cc2C(=O)N(C)c2cccnc21 [BILR 355] | > 20 | > 20
21 | Nc1cc(C(F)(F)F)c(-c2nc(N3CCOCC3)nc(N3CCOCC3)n2)cn1 [BIMIRALISIB] | > 20 | > 20
22 | O=C(O)Cc1cccc(-c2cc(CCCCCCc3ccc(O[C@H]4O[C@H](CO)[C@@H](O)[C@H](O)[C@@H]4O)c(-c4cccc(CC(=O)O)c4)c3)ccc2O[C@H]2O[C@H](CO)[C@@H](O)[C@H](O)[C@@H]2O)c1 [BIMOSIAMOSE] | > 20 | > 20
23 | Cn1cnc2c(F)c(Nc3ccc(Br)cc3F)c(C(=O)NOCCO)cc21 [BINIMETINIB] | > 20 | > 20
24 | Cc1sc2c(c1C)C(c1ccc(Cl)cc1)=N[C@@H](CC(=O)Nc1ccc(O)cc1)c1nnc(C)n1-2 [BIRABRESIB] | > 20 | > 20
25 | CC[C@H](NC(=O)[C@H](C)NC)C(=O)N1C[C@@H](O)C[C@H]1Cc1c(-c2[nH]c3cc(F)ccc3c2C[C@@H]2C[C@H](O)CN2C(=O)[C@H](CC)NC(=O)[C@H](C)NC)[nH]c2cc(F)ccc12 [BIRINAPANT] | > 20 | > 20
26 | CC(=O)Oc1ccc(C(c2ccc(OC(C)=O)cc2)c2ccccn2)cc1 [BISACODYL] | > 20 | > 20
27 | CC(C)(C)CC(C)(C)c1cc(Cc2cc(C(C)(C)CC(C)(C)C)cc(-n3nc4ccccc4n3)c2O)c(O)c(-n2nc3ccccc3n2)c1 [BISOCTRIZOLE] | > 20 | > 20
28 | CC(C)NCC(O)COc1ccc(COCCOC(C)C)cc1 (centres undefined) [BISOPROLOL] | > 20 | > 20
29 | [O-][S+](c1cc(Cl)cc(Cl)c1O)c1cc(Cl)cc(Cl)c1O [BITHIONOLOXIDE] | > 20 | > 20
30 | Oc1c(Cl)cc(Cl)cc1Sc1cc(Cl)cc(Cl)c1O [BITHIONOL] | > 20 | > 20
31 | CC(C)(C)c1cnc(CSc2cnc(NC(=O)C3CCNCC3)s2)o1 [BMS-387032] | > 20 | > 20
32 | COc1cccc(Nc2ncnn3ccc(CN4CC[C@@H](N)[C@H](O)C4)c23)c1 [BMS-690514] | > 20 | > 20
33 | Cn1c(N2CCCCS2(=O)=O)nc(C(=O)NCc2ccc(F)cc2)c(O)c1=O [BMS-707035] | > 20 | > 20
34 | CCOc1ccn(-c2ccc(F)cc2)c(=O)c1C(=O)Nc1ccc(Oc2ccnc(N)c2Cl)c(F)c1 [BMS-777607] | > 20 | > 20
35 | CCn1c(C(=O)N(C2CC2)C2CC2)cc2c3c(ncn3C)c(Nc3cc(C)n(C)n3)nc21 [BMS-911543] | > 20 | > 20
36 | Cc1c(-c2c(F)cc(C(N)=O)c3[nH]c4c(c23)CC[C@H](C(C)(C)O)C4)cccc1-n1c(=O)c2cccc(F)c2n(C)c1=O [BMS-986142] | > 20 | > 20
37 | OC(CCCN1CCN(c2ncc(F)cn2)CC1)c1ccc(F)cc1 (centres undefined) [BMY-14802] | > 20 | > 20
38 | CC(C)(C)NC(=O)N[C@H](C(=O)N1C[C@H]2[C@@H]([C@H]1C(=O)NC(CC1CCC1)C(=O)C(N)=O)C2(C)C)C(C)(C)C (some centres undefined) [BOCEPREVIR] | > 20 | > 20

Row | Structure (SMILES) | IC50 [µM] | IC50 (read-out: pIC50 (converted)) [µM]
39 | COc1ccccc1Oc1c(NS(=O)(=O)c2ccc(C(C)(C)C)cc2)nc(-c2ncccn2)nc1OCCO [BOSENTAN] | > 20 | > 20
40 | COc1cc(Nc2c(C#N)cnc3cc(OCCCN4CCN(C)CC4)c(OC)cc23)c(Cl)cc1Cl [BOSUTINIB] | > 20 | > 20
41 | CC#CC(=O)N[C@H]1CCCN(c2c(F)cc(C(N)=O)c3[nH]c(C)c(C)c23)C1 [BRANEBRUTINIB] | > 20 | > 20
42 | Cc1nc(COc2ccc(C[C@H](NC(=O)O[C@H]3CO[C@H]4OCC[C@H]43)[C@H](O)CN(CC(C)C)S(=O)(=O)c3ccc4c(c3)OCO4)cc2)cs1 [BRECANAVIR] | > 20 | > 20
43 | CCC12CCN(CC3(O)CC3)C(Cc3ccc(O)cc31)C2(C)C (centres undefined) [BREMAZOCINE] | > 20 | > 20
44 | CC(C)(C)OC(=O)c1ncn2c1[C@@H]1CCCN1C(=O)c1c(Br)cccc1-2 [BRETAZENIL] | > 20 | > 20
45 | CC[N+](C)(C)Cc1ccccc1Br [BRETYLIUM] | > 20 | > 20
46 | Brc1c(NC2=NCCN2)ccc2nccnc12 [BRIMONIDINE] | > 20 | > 20
47 | CCN[C@H]1CN(CCCOC)S(=O)(=O)c2sc(S(N)(=O)=O)cc21 [BRINZOLAMIDE] | > 20 | > 20
48 | Cc1cc2c(F)c(Oc3ncnn4cc(OC[C@@H](C)OC(=O)[C@H](C)N)c(C)c34)ccc2[nH]1 [BRIVANIB ALANINATE] | > 20 | > 20
49 | Cc1cc2c(F)c(Oc3ncnn4cc(OC[C@@H](C)O)c(C)c34)ccc2[nH]1 [BRIVANIB] | > 20 | > 20
50 | CCC[C@@H]1CC(=O)N([C@@H](CC)C(N)=O)C1 [BRIVARACETAM] | > 20 | > 20
51 | O=c1[nH]c(=O)n([C@H]2C[C@H](O)[C@@H](CO)O2)cc1/C=C/Br [BRIVUDINE] | > 20 | > 20
52 | CC1(C)OC(=O)Nc2ccc(Br)cc21 [BROFOXINE] | > 20 | > 20
53 | O=C1CN=C(c2ccccn2)c2cc(Br)ccc2N1 [BROMAZEPAM] | > 20 | > 20
54 | CCN(CC)C(=O)N[C@H]1C=C2c3cccc4[nH]c(Br)c(c34)C[C@H]2N(C)C1 [BROMERGURIDE] | > 20 | > 20
55 | Nc1c(CC(=O)O)cccc1C(=O)c1ccc(Br)cc1 [BROMFENAC] | > 20 | > 20
56 | CN(Cc1cc(Br)cc(Br)c1N)C1CCCCC1 [BROMHEXINE] | > 20 | > 20
57 | O=C1c2ccccc2C(=O)C1c1ccc(Br)cc1 [BROMINDIONE] | > 20 | > 20
